Results published in article PMC9866905, “Dehydroeburicoic Acid, a Dual Inhibitor against Oxidative Stress in Alcoholic Liver Disease” (Pharmaceuticals, 2022).

Key:
Keap1 = Keap1 (Homo sapiens, UniProt Q14145); test: fluorescence polarization competition with labeled Nrf2 (ETGE) peptide, dose-response; supported by CETSA in LO2 lysate (ΔTm ca. […] °C); type: binding; settings: read-out: EC50 (the source's name)
GSK3β = biological target: T1, GSK3β (Homo sapiens, UniProt P49841); test: ADP-Glo luminescent kinase assay, dose-response; supported by CETSA in LO2 lysate (ΔTm ca. […] °C); type: biochemical
T1 construct: gene GSK3B
T1 sequence (P49841 whole entry): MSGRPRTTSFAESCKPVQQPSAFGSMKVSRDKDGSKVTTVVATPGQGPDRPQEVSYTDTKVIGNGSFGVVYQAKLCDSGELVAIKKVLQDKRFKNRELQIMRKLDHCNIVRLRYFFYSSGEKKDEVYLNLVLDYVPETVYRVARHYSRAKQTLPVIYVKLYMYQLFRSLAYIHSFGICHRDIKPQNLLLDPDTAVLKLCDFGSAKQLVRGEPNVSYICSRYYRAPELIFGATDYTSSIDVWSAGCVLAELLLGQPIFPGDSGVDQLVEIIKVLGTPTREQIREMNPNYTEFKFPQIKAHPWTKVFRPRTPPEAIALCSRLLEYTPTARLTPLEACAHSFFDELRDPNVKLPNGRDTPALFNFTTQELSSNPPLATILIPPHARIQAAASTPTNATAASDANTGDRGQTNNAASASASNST

Sequence of Keap1 (Q14145 whole entry): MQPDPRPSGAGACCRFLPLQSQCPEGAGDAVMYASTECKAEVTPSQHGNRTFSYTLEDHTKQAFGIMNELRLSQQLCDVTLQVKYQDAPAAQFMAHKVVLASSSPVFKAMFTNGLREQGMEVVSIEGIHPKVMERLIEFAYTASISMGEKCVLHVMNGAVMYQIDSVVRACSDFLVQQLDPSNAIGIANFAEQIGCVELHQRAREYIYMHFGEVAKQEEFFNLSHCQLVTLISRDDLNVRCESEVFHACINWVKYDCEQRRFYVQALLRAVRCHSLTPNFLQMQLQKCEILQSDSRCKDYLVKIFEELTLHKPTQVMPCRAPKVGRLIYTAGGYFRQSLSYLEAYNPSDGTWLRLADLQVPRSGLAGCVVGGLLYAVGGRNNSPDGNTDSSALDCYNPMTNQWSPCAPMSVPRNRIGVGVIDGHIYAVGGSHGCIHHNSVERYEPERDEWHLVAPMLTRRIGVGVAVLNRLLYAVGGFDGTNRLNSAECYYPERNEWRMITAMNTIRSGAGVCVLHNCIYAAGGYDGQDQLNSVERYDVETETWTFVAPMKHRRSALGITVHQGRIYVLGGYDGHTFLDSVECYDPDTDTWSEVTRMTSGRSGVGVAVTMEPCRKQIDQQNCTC

Structure (SMILES): C=C(CC[C@@H](C(=O)O)[C@H]1CC[C@@]2(C)C3=CC[C@H]4C(C)(C)[C@@H](O)CC[C@]4(C)C3=CC[C@]12C)C(C)C [compound 1, Dehydroeburicoic acid]
- IC50 (Keap1): 14.1 ± 0.1 µM
- EC50 (GSK3β): 8 ± 0.7 µM
